Measured values as given in ChEMBL document CHEMBL1150670, “Anti-HIV agents derived from the ent-kaurane diterpenoid linearol” (J Nat Prod, 2002).
Values after ≈ are worked out from the molar mass of the structure shown. Active and inactive are the calls of the source. No cut-off for these calls is given here.

Legend:
[1] = test system: Human immunodeficiency virus 1; assay: Antiviral activity against HIV1 3B replication in human H9 cells assessed as inhibition of p24 antigen production after 4 days by ELISA; type: functional, organism-based; conditions: for EC50: Human immunodeficiency virus 1, 3B, H9, 96 h
H9 = assay: Cytotoxicity against human H9 cells by Coulter counting analysis; type: cell-based
[2] = Therapeutic index, ratio of IC50 for human H9 cells to EC50 for HIV1 3B replication in human H9 cells; type: cell-based; conditions: read-out: Ratio IC50/EC50

Structure (SMILES) | Activity [1] | IC50 (H9) [µg/mL] | EC50 [1] [µg/mL] | selectivity ratio [2]
C=C1C[C@@]23C[C@@H]1CC[C@H]2[C@]1(C)CC[C@@H](OC(=O)c2ccc(OC)cc2)[C@](C)(COC(C)=O)[C@@H]1C[C@@H]3O | inactive | 2 (≈ 4.03 µM) | – | –
C=C1C[C@@]23C[C@@H]1CC[C@H]2[C@]1(C)CC[C@@H](OC(=O)c2ccc(F)cc2)[C@](C)(COC(C)=O)[C@@H]1C[C@@H]3O | inactive | 57.7 (≈ 119 µM) | – | –
CC(=O)O[C@@H]1CC[C@]2(C)[C@@H](C[C@H](O)[C@]34C[C@H](CC[C@@H]23)[C@@]2(CO2)C4)[C@@]1(C)CO | inactive | > 100 | – | –
C=C1C[C@@]23C[C@@H]1CC[C@H]2[C@]1(C)CC[C@@H](OC(=O)c2ccccc2)[C@](C)(COC(C)=O)[C@@H]1C[C@@H]3OC(=O)c1ccccc1 | inactive | 2.2 (≈ 3.85 µM) | – | –
C=C1C[C@@]23C[C@@H]1CC[C@H]2[C@]1(C)CC[C@@H](OC(=O)c2ccc4c(c2)OCO4)[C@](C)(COC(C)=O)[C@@H]1C[C@@H]3OC(=O)c1ccc2c(c1)OCO2 | – | 50.6 (≈ 76.8 µM) | 0.27 (≈ 0.41 µM) | 184
C=C1C[C@@]23C[C@@H]1CC[C@H]2[C@]1(C)CC[C@@H](OC(=O)c2ccc(C)cc2)[C@](C)(COC(C)=O)[C@@H]1C[C@@H]3OC(=O)c1ccc(C)cc1 | – | 52.5 (≈ 87.7 µM) | 1.05 (≈ 1.75 µM) | 50.1
C=C1C[C@@]23C[C@@H]1CC[C@H]2[C@]1(C)CC[C@@H](OC(=O)c2ccccc2OC)[C@](C)(COC(C)=O)[C@@H]1C[C@@H]3OC(=O)c1ccccc1OC | inactive | 6 (≈ 9.51 µM) | – | –
C=C1C[C@@]23C[C@@H]1CC[C@H]2[C@]1(C)CC[C@@H](OC(=O)c2ccc(OC)cc2)[C@](C)(COC(C)=O)[C@@H]1C[C@@H]3OC(=O)c1ccc(OC)cc1 | – | 1.9 (≈ 3.01 µM) | < 0.1 | > 19.2
C=C1C[C@@]23C[C@@H]1CC[C@H]2[C@]1(C)CC[C@@H](OC(=O)c2ccccc2OC)[C@](C)(COC(C)=O)[C@@H]1C[C@@H]3O | inactive | 5.4 (≈ 10.9 µM) | – | –
C=C1C[C@@]23C[C@@H]1CC[C@H]2[C@]1(C)CC[C@@H](OC(=O)c2ccco2)[C@](C)(COC(C)=O)[C@@H]1C[C@@H]3OC(=O)c1ccco1 | – | 10.8 (≈ 19.6 µM) | 3.11 (≈ 5.65 µM) | 3.49
C=C1C[C@@]23C[C@@H]1CC[C@H]2[C@]1(C)CC[C@@H](OC(=O)c2ccc(Cl)cc2)[C@](C)(COC(C)=O)[C@@H]1C[C@@H]3OC(=O)c1ccc(Cl)cc1 | inactive | 60.1 (≈ 94 µM) | – | –
CC(=O)OC[C@]1(C)[C@@H]2C[C@H](O)[C@]34C[C@H](CC[C@H]3[C@]2(C)CC[C@H]1O)[C@@]1(CO1)C4 | – | > 100 | – | –
C=C1C[C@@]23C[C@@H]1CC[C@H]2[C@]1(C)CC[C@@H](OC(=O)c2ccc(F)cc2)[C@](C)(COC(C)=O)[C@@H]1C[C@@H]3OC(=O)c1ccc(F)cc1 | inactive | 41.1 (≈ 67.7 µM) | – | –
C=C1C[C@@]23C[C@@H]1CC[C@H]2[C@]1(C)CC[C@@H](OC(=O)c2cnccn2)[C@](C)(COC(C)=O)[C@@H]1C[C@@H]3OC(=O)c1cnccn1 | inactive | 5.6 (≈ 9.74 µM) | – | –
C=C1C[C@@]23C[C@@H]1CC[C@H]2[C@]1(C)CC[C@@H](OC(=O)c2ccc(SC)cc2)[C@](C)(COC(C)=O)[C@@H]1C[C@@H]3OC(=O)c1ccc(SC)cc1 | inactive | 59.8 (≈ 90.2 µM) | – | –
C=C1C[C@@]23C[C@@H]1CC[C@H]2[C@]1(C)CC[C@@H](OC(=O)CC)[C@](C)(COC(C)=O)[C@@H]1C[C@@H]3O | inactive | 22.2 (≈ 53 µM) | – | –
C=C1C[C@@]23C[C@@H]1CC[C@H]2[C@]1(C)CC[C@@H](OC(=O)c2ccc([N+](=O)[O-])cc2)[C@](C)(COC(C)=O)[C@@H]1C[C@@H]3OC(=O)c1ccc([N+](=O)[O-])cc1 | inactive | > 100 | – | –
C=C1C[C@@]23C[C@@H]1CC[C@H]2[C@]1(C)CC[C@@H](OC(=O)c2ccccc2)[C@](C)(COC(C)=O)[C@@H]1C[C@@H]3O | inactive | 1.8 (≈ 3.86 µM) | – | –
C=C1C[C@@]23C[C@@H]1CC[C@H]2[C@]1(C)CC[C@@H](OC(=O)c2ccc(Cl)cc2)[C@](C)(COC(C)=O)[C@@H]1C[C@@H]3O | inactive | 54 (≈ 108 µM) | – | –
C=C1C[C@@]23C[C@@H]1CC[C@H]2[C@]1(C)CC[C@@H](OC(=O)c2ccc4c(c2)OCO4)[C@](C)(COC(C)=O)[C@@H]1C[C@@H]3O | inactive | 5.3 (≈ 10.4 µM) | – | –
CC(=O)OC[C@]1(C)[C@@H]2C[C@H](O)[C@@]34CC(=O)[C@@H](CC[C@H]3[C@]2(C)CC[C@H]1O)C4 | inactive | > 100 | – | –
C=C1C[C@@]23C[C@@H]1CC[C@H]2[C@]1(C)CC[C@@H](O)[C@](C)(COC(C)=O)[C@@H]1C[C@@H]3O [LINEAROL] | inactive | 56.5 (≈ 156 µM) | – | –
CC(=O)OC[C@]1(C)[C@@H]2C[C@H](OC(C)=O)[C@]34C[C@H](CC[C@H]3[C@]2(C)CC[C@H]1OC(C)=O)[C@@]1(CO1)C4 | – | 20.6 (≈ 44.5 µM) | 0.13 (≈ 0.281 µM) | 163
C=C1C[C@@]23C[C@@H]1CC[C@H]2[C@]1(C)CC[C@@H](OC(=O)c2cccc([N+](=O)[O-])c2)[C@](C)(COC(C)=O)[C@@H]1C[C@@H]3OC(=O)c1cccc([N+](=O)[O-])c1 | inactive | 21.4 (≈ 32.4 µM) | – | –
C=C1C[C@@]23C[C@@H]1CC[C@H]2[C@]1(C)CC[C@@H](OC(=O)c2ccc(SC)cc2)[C@](C)(COC(C)=O)[C@@H]1C[C@@H]3O | inactive | 5.3 (≈ 10.3 µM) | – | –
C=C1C[C@@]23C[C@@H]1CC[C@H]2[C@]1(C)CC[C@@H](OC(=O)CC)[C@](C)(COC(C)=O)[C@@H]1C[C@@H]3OC(=O)CC | – | 16 (≈ 33.7 µM) | 2.63 (≈ 5.54 µM) | 6.1
C=C1C[C@@]23C[C@@H]1CC[C@H]2[C@]1(C)CC[C@@H](OC(=O)c2ccc(C#N)cc2)[C@](C)(COC(C)=O)[C@@H]1C[C@@H]3OC(=O)c1ccc(C#N)cc1 | inactive | > 100 | – | –
